Reference: ChEMBL document CHEMBL4251634, “Synthesis and antimicrobial activity of pyrimidinyl 1,3,4-oxadiazoles, 1,3,4-thiadiazoles and 1,2,4-triazoles” (2018)
Active and inactive are the calls of the source. The rule behind the calls is not given here.

Key:
Assay type in all cases: functional
Pseudomonas aeruginosa [1] = test: Antibacterial activity against Pseudomonas aeruginosa assessed as diameter of inhibition zone at 25 ug/well after 24 hrs by agar well diffusion method; settings: for zone of inhibition at 25 µg/disc: read-out: DIZ
Bacillus subtilis [2] = test: Antibacterial activity against Bacillus subtilis assessed as diameter of inhibition zone at 50 ug/well after 24 hrs by agar well diffusion method; settings: for zone of inhibition at 50 µg/disc: read-out: DIZ
Penicillium chrysogenum [3] = test: Antifungal activity against Penicillium chrysogenum assessed as diameter of inhibition zone at 25 ug/well after 48 hrs by agar well diffusion method; settings: for zone of inhibition at 25 µg/disc: read-out: DIZ
Bacillus subtilis [4] = test: Antibacterial activity against Bacillus subtilis assessed as diameter of inhibition zone at 25 ug/well after 24 hrs by agar well diffusion method; settings: for zone of inhibition at 25 µg/disc: read-out: DIZ
Klebsiella pneumoniae [5] = test: Antibacterial activity against Klebsiella pneumoniae assessed as diameter of inhibition zone at 50 ug/well after 24 hrs by agar well diffusion method; settings: for zone of inhibition at 50 µg/disc: read-out: DIZ
Staphylococcus aureus [6] = test: Antibacterial activity against Staphylococcus aureus assessed as diameter of inhibition zone at 50 ug/well after 24 hrs by agar well diffusion method; settings: for zone of inhibition at 50 µg/disc: read-out: DIZ
Pseudomonas aeruginosa [7] = test: Antibacterial activity against Pseudomonas aeruginosa assessed as diameter of inhibition zone at 50 ug/well after 24 hrs by agar well diffusion method; settings: for zone of inhibition at 50 µg/disc: read-out: DIZ
Aspergillus niger [8] = test: Antifungal activity against Aspergillus niger assessed as diameter of inhibition zone at 100 ug/well after 48 hrs by agar well diffusion method; settings: read-out: DIZ
Penicillium chrysogenum [9] = test: Antifungal activity against Penicillium chrysogenum assessed as diameter of inhibition zone at 12.5 ug/well after 48 hrs by agar well diffusion method; settings: for zone of inhibition at 12.5 µg/disc: read-out: DIZ
Staphylococcus aureus [10] = test: Antibacterial activity against Staphylococcus aureus assessed as diameter of inhibition zone at 12.5 ug/well after 24 hrs by agar well diffusion method; settings: for zone of inhibition at 12.5 µg/disc: read-out: DIZ
Klebsiella pneumoniae [11] = test: Antibacterial activity against Klebsiella pneumoniae assessed as diameter of inhibition zone at 25 ug/well after 24 hrs by agar well diffusion method; settings: for zone of inhibition at 25 µg/disc: read-out: DIZ
Klebsiella pneumoniae [12] = test: Antibacterial activity against Klebsiella pneumoniae assessed as diameter of inhibition zone at 12.5 ug/well after 24 hrs by agar well diffusion method; settings: for zone of inhibition at 12.5 µg/disc: read-out: DIZ
Penicillium chrysogenum [13] = test: Antifungal activity against Penicillium chrysogenum assessed as diameter of inhibition zone at 100 ug/well after 48 hrs by agar well diffusion method; settings: for zone of inhibition at 100 µg/disc: read-out: DIZ
Klebsiella pneumoniae [14] = test: Antibacterial activity against Klebsiella pneumoniae assessed as diameter of inhibition zone at 100 ug/well after 24 hrs by agar well diffusion method; settings: for zone of inhibition at 100 µg/disc: read-out: DIZ
Aspergillus niger [15] = test: Antifungal activity against Aspergillus niger assessed as diameter of inhibition zone at 12.5 ug/well after 48 hrs by agar well diffusion method; settings: for zone of inhibition at 12.5 µg/disc: read-out: DIZ
Pseudomonas aeruginosa [16] = test: Antibacterial activity against Pseudomonas aeruginosa assessed as diameter of inhibition zone at 100 ug/well after 24 hrs by agar well diffusion method; settings: for zone of inhibition at 100 µg/disc: read-out: DIZ
Staphylococcus aureus [17] = test: Antibacterial activity against Staphylococcus aureus assessed as diameter of inhibition zone at 25 ug/well after 24 hrs by agar well diffusion method; settings: for zone of inhibition at 25 µg/disc: read-out: DIZ
Staphylococcus aureus [18] = test: Antibacterial activity against Staphylococcus aureus assessed as diameter of inhibition zone at 100 ug/well after 24 hrs by agar well diffusion method; settings: for zone of inhibition at 100 µg/disc: read-out: DIZ
Pseudomonas aeruginosa [19] = test: Antibacterial activity against Pseudomonas aeruginosa assessed as diameter of inhibition zone at 12.5 ug/well after 24 hrs by agar well diffusion method; settings: for zone of inhibition at 12.5 µg/disc: read-out: DIZ
Aspergillus niger [20] = test: Antifungal activity against Aspergillus niger assessed as diameter of inhibition zone at 50 ug/well after 48 hrs by agar well diffusion method; settings: read-out: DIZ
Aspergillus niger [21] = test: Antifungal activity against Aspergillus niger assessed as diameter of inhibition zone at 25 ug/well after 48 hrs by agar well diffusion method; settings: for zone of inhibition at 25 µg/disc: read-out: DIZ
Bacillus subtilis [22] = test: Antibacterial activity against Bacillus subtilis assessed as diameter of inhibition zone at 12.5 ug/well after 24 hrs by agar well diffusion method; settings: for zone of inhibition at 12.5 µg/disc: read-out: DIZ
Penicillium chrysogenum [23] = test: Antifungal activity against Penicillium chrysogenum assessed as diameter of inhibition zone at 50 ug/well after 48 hrs by agar well diffusion method; settings: for zone of inhibition at 50 µg/disc: read-out: DIZ
Bacillus subtilis [24] = test: Antibacterial activity against Bacillus subtilis assessed as diameter of inhibition zone at 100 ug/well after 24 hrs by agar well diffusion method; settings: for zone of inhibition at 100 µg/disc: read-out: DIZ

`Cc1cc(SCc2nnc(-c3ccc([N+](=O)[O-])cc3)o2)nc(SCc2nnc(-c3ccc([N+](=O)[O-])cc3)o2)n1` gave a zone of inhibition at 25 µg/disc (Pseudomonas aeruginosa [1]) of 14 mm, a zone of inhibition at 50 µg/disc (Bacillus subtilis [2]) of 13 mm and a zone of inhibition at 25 µg/disc (Penicillium chrysogenum [3]) of 14 mm. The zone of inhibition at 25 µg/disc (Bacillus subtilis [4]) was 11 mm, the zone of inhibition at 50 µg/disc (Klebsiella pneumoniae [5]) was 19 mm and the zone of inhibition at 50 µg/disc (Staphylococcus aureus [6]) was 8 mm. For the same molecule, the zone of inhibition at 50 µg/disc (Pseudomonas aeruginosa [7]) was 16 mm, the zone of inhibition at 100 µg/disc (Aspergillus niger [8]) was 27 mm and the zone of inhibition at 12.5 µg/disc (Penicillium chrysogenum [9]) was 12 mm. For the same molecule, the “diameter of the inhibition zone (DIZ)” value (Staphylococcus aureus [10]) was “inactive”, the zone of inhibition at 25 µg/disc (Klebsiella pneumoniae [11]) was 17 mm and the zone of inhibition at 12.5 µg/disc (Klebsiella pneumoniae [12]) was 15 mm. The zone of inhibition at 100 µg/disc (Penicillium chrysogenum [13]) was 19 mm, the zone of inhibition at 100 µg/disc (Klebsiella pneumoniae [14]) was 21 mm and the zone of inhibition at 12.5 µg/disc (Aspergillus niger [15]) was 20 mm. It also gave a zone of inhibition at 100 µg/disc (Pseudomonas aeruginosa [16]) of 21 mm, a zone of inhibition at 25 µg/disc (Staphylococcus aureus [17]) of 7 mm and a zone of inhibition at 100 µg/disc (Staphylococcus aureus [18]) of 10 mm. For the same molecule, the zone of inhibition at 12.5 µg/disc (Pseudomonas aeruginosa [19]) was 11 mm, the zone of inhibition at 50 µg/disc (Aspergillus niger [20]) was 24 mm and the zone of inhibition at 25 µg/disc (Aspergillus niger [21]) was 22 mm. The zone of inhibition at 12.5 µg/disc (Bacillus subtilis [22]) was 9 mm, the zone of inhibition at 50 µg/disc (Penicillium chrysogenum [23]) was 16 mm and the zone of inhibition at 100 µg/disc (Bacillus subtilis [24]) was 15 mm.

`COc1ccc(-c2nnc(CSc3cc(C)nc(SCc4nnc(-c5ccc(OC)cc5)n4N)n3)n2N)cc1` was tested, and the “diameter of the inhibition zone (DIZ)” value (Pseudomonas aeruginosa [1]) was “inactive”, the “diameter of the inhibition zone (DIZ)” value (Bacillus subtilis [2]) was “inactive” and the “diameter of the inhibition zone (DIZ)” value (Penicillium chrysogenum [3]) was “inactive”. The “diameter of the inhibition zone (DIZ)” value (Bacillus subtilis [4]) was “inactive”, the “diameter of the inhibition zone (DIZ)” value (Klebsiella pneumoniae [5]) was “inactive” and the “diameter of the inhibition zone (DIZ)” value (Staphylococcus aureus [6]) was “inactive”. The “diameter of the inhibition zone (DIZ)” value (Pseudomonas aeruginosa [7]) was “inactive”, the zone of inhibition at 100 µg/disc (Aspergillus niger [8]) was 10 mm and the “diameter of the inhibition zone (DIZ)” value (Penicillium chrysogenum [9]) was “inactive”. For the same molecule, the “diameter of the inhibition zone (DIZ)” value (Staphylococcus aureus [10]) was “inactive”, the “diameter of the inhibition zone (DIZ)” value (Klebsiella pneumoniae [11]) was “inactive” and the “diameter of the inhibition zone (DIZ)” value (Klebsiella pneumoniae [12]) was “inactive”. For the same molecule, the “diameter of the inhibition zone (DIZ)” value (Penicillium chrysogenum [13]) was “inactive”, the “diameter of the inhibition zone (DIZ)” value (Klebsiella pneumoniae [14]) was “inactive” and the “diameter of the inhibition zone (DIZ)” value (Aspergillus niger [15]) was “inactive”. The “diameter of the inhibition zone (DIZ)” value (Pseudomonas aeruginosa [16]) was “inactive”, the “diameter of the inhibition zone (DIZ)” value (Staphylococcus aureus [17]) was “inactive” and the “diameter of the inhibition zone (DIZ)” value (Staphylococcus aureus [18]) was “inactive”. For the same molecule, the “diameter of the inhibition zone (DIZ)” value (Pseudomonas aeruginosa [19]) was “inactive”, the zone of inhibition at 50 µg/disc (Aspergillus niger [20]) was 8 mm and the “diameter of the inhibition zone (DIZ)” value (Aspergillus niger [21]) was “inactive”. For the same molecule, the “diameter of the inhibition zone (DIZ)” value (Bacillus subtilis [22]) was “inactive”, the “diameter of the inhibition zone (DIZ)” value (Penicillium chrysogenum [23]) was “inactive” and the “diameter of the inhibition zone (DIZ)” value (Bacillus subtilis [24]) was “inactive”.

For `Cc1cc(SCc2nnc(-c3ccc(Br)cc3)s2)nc(SCc2nnc(-c3ccc(Br)cc3)s2)n1`, the zone of inhibition at 25 µg/disc (Pseudomonas aeruginosa [1]) was 23 mm, the zone of inhibition at 50 µg/disc (Bacillus subtilis [2]) was 21 mm and the zone of inhibition at 25 µg/disc (Penicillium chrysogenum [3]) was 15 mm. The zone of inhibition at 25 µg/disc (Bacillus subtilis [4]) was 19 mm, the zone of inhibition at 50 µg/disc (Klebsiella pneumoniae [5]) was 28 mm and the zone of inhibition at 50 µg/disc (Staphylococcus aureus [6]) was 15 mm. For the same molecule, the zone of inhibition at 50 µg/disc (Pseudomonas aeruginosa [7]) was 25 mm, the zone of inhibition at 100 µg/disc (Aspergillus niger [8]) was 30 mm and the zone of inhibition at 12.5 µg/disc (Penicillium chrysogenum [9]) was 13 mm. The zone of inhibition at 12.5 µg/disc (Staphylococcus aureus [10]) was 11 mm, the zone of inhibition at 25 µg/disc (Klebsiella pneumoniae [11]) was 26 mm and the zone of inhibition at 12.5 µg/disc (Klebsiella pneumoniae [12]) was 24 mm. For the same molecule, the zone of inhibition at 100 µg/disc (Penicillium chrysogenum [13]) was 20 mm, the zone of inhibition at 100 µg/disc (Klebsiella pneumoniae [14]) was 31 mm and the zone of inhibition at 12.5 µg/disc (Aspergillus niger [15]) was 22 mm. It also gave a zone of inhibition at 100 µg/disc (Pseudomonas aeruginosa [16]) of 29 mm, a zone of inhibition at 25 µg/disc (Staphylococcus aureus [17]) of 13 mm and a zone of inhibition at 100 µg/disc (Staphylococcus aureus [18]) of 17 mm. It also gave a zone of inhibition at 12.5 µg/disc (Pseudomonas aeruginosa [19]) of 19 mm, a zone of inhibition at 50 µg/disc (Aspergillus niger [20]) of 26 mm and a zone of inhibition at 25 µg/disc (Aspergillus niger [21]) of 24 mm. For the same molecule, the zone of inhibition at 12.5 µg/disc (Bacillus subtilis [22]) was 17 mm, the zone of inhibition at 50 µg/disc (Penicillium chrysogenum [23]) was 17 mm and the zone of inhibition at 100 µg/disc (Bacillus subtilis [24]) was 24 mm.

For `Cc1cc(SCc2nnc(-c3ccc(Br)cc3)n2N)nc(SCc2nnc(-c3ccc(Br)cc3)n2N)n1`, the zone of inhibition at 25 µg/disc (Pseudomonas aeruginosa [1]) was 20 mm, the zone of inhibition at 50 µg/disc (Bacillus subtilis [2]) was 18 mm and the zone of inhibition at 25 µg/disc (Penicillium chrysogenum [3]) was 19 mm. It also gave a zone of inhibition at 25 µg/disc (Bacillus subtilis [4]) of 16 mm, a zone of inhibition at 50 µg/disc (Klebsiella pneumoniae [5]) of 25 mm and a zone of inhibition at 50 µg/disc (Staphylococcus aureus [6]) of 12 mm. For the same molecule, the zone of inhibition at 50 µg/disc (Pseudomonas aeruginosa [7]) was 22 mm, the zone of inhibition at 100 µg/disc (Aspergillus niger [8]) was 34 mm and the zone of inhibition at 12.5 µg/disc (Penicillium chrysogenum [9]) was 17 mm. The zone of inhibition at 12.5 µg/disc (Staphylococcus aureus [10]) was 9 mm, the zone of inhibition at 25 µg/disc (Klebsiella pneumoniae [11]) was 23 mm and the zone of inhibition at 12.5 µg/disc (Klebsiella pneumoniae [12]) was 21 mm. For the same molecule, the zone of inhibition at 100 µg/disc (Penicillium chrysogenum [13]) was 24 mm, the zone of inhibition at 100 µg/disc (Klebsiella pneumoniae [14]) was 28 mm and the zone of inhibition at 12.5 µg/disc (Aspergillus niger [15]) was 27 mm. The zone of inhibition at 100 µg/disc (Pseudomonas aeruginosa [16]) was 25 mm, the zone of inhibition at 25 µg/disc (Staphylococcus aureus [17]) was 10 mm and the zone of inhibition at 100 µg/disc (Staphylococcus aureus [18]) was 14 mm. For the same molecule, the zone of inhibition at 12.5 µg/disc (Pseudomonas aeruginosa [19]) was 16 mm, the zone of inhibition at 50 µg/disc (Aspergillus niger [20]) was 31 mm and the zone of inhibition at 25 µg/disc (Aspergillus niger [21]) was 29 mm. For the same molecule, the zone of inhibition at 12.5 µg/disc (Bacillus subtilis [22]) was 15 mm, the zone of inhibition at 50 µg/disc (Penicillium chrysogenum [23]) was 21 mm and the zone of inhibition at 100 µg/disc (Bacillus subtilis [24]) was 20 mm.
